Some test systems named below: T47D; HCC 2998; HOP-92; M14; NCI-H460; SK-OV-3; RXF 393; UACC-62; EKVX; HOP-62; HL-60; NCI-H226; SF-268; SW-620; CAKI-1; SK-MEL-2; IGROV-1; SN12C; OVCAR-4.
Common to all, as to assay: inhibition of tumour cell growth, NCI panel, 48 h

The text below walks through data of ChEMBL document CHEMBL1201862, “PubChem BioAssay data set” (2004).

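Five compound concentrations were applied to cells in 96-well plates for 48 hours; endpoints were derived by simple linear interpolation of the resulting dose-response curve. Abbreviation: GI50, concentration required for 50% inhibition of growth.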 Activity calls are given as the source filed them. Rule as the data show it: active = GI50 up to about 1.1 µM and inactive = higher. Where only a bound is given, the exact number is not on record here.

With `N#C/C(=C\NC(=S)c1ccncc1)c1nc2ccccc2s1`, the GI50 in the assay on T47D is 37.9 µM (inactive); with HCC 2998, 21.7 µM (inactive); in the assay on HOP-92, > 100 µM (inactive); in the assay on M14, > 100 µM (inactive); in the assay on NCI-H460, 68.7 µM (inactive); with SK-OV-3, > 100 µM (inactive). In addition, the GI50 in the assay on RXF 393 is > 100 µM (inactive); in the assay with UACC-62, > 100 µM (inactive); in the assay with EKVX, 67.1 µM (inactive); in the assay on HOP-62, > 100 µM (inactive); in the assay on HL-60 it was > 100 µM (inactive); in the assay on NCI-H226, > 100 µM (inactive). Besides, the GI50 with SF-268 is > 100 µM (inactive); in the assay with SW-620, > 100 µM (inactive); in the assay on CAKI-1, > 100 µM (inactive); with SK-MEL-2, 82.2 µM (inactive); with IGROV-1, > 100 µM (inactive); in the assay with SN12C it was > 100 µM (inactive). In the assay with OVCAR-4, the GI50 was > 100 µM (inactive).

Consider `N=C(N)N/N=C/c1c(-c2ccc(Cl)c([N+](=O)[O-])c2)nc2sccn12`, for which the GI50 is 0.493 µM (active) in the assay with T47D; 1.6 µM (inactive) in the assay on HCC 2998; 1.87 µM (inactive) in the assay with HOP-92; 1.8 µM (inactive) in the assay on M14; 1.79 µM (inactive) in the assay with NCI-H460; 1.78 µM (inactive) in the assay on SK-OV-3. The GI50 with RXF 393 was 1.22 µM (inactive); in the assay with UACC-62, 1.8 µM (inactive); in the assay on EKVX it was 1.85 µM (inactive); in the assay with HOP-62, 1.85 µM (inactive); in the assay with HL-60, 1.96 µM (inactive); in the assay on NCI-H226, 1.92 µM (inactive). The GI50 is 1.92 µM (inactive) in the assay on SF-268; 1.53 µM (inactive) in the assay with SW-620; 1.69 µM (inactive) in the assay on CAKI-1; 1.85 µM (inactive) in the assay with SK-MEL-2; 1.72 µM (inactive) with IGROV-1; 1.82 µM (inactive) in the assay on SN12C. The GI50 in the assay with OVCAR-4 was 1.79 µM (inactive).

On to `O=c1[nH]nc(-c2ccccc2)n1/N=C/c1c[nH]c2ccccc12`, for which the GI50 in the assay with T47D, in the assay with HCC 2998, in the assay on HOP-92, in the assay on M14, in the assay on NCI-H460 and with SK-OV-3 was > 100 µM (inactive) each time. Besides, the GI50 in the assay on RXF 393 was 98.4 µM (inactive); in the assay with UACC-62, 96.8 µM (inactive); in the assay on EKVX, > 100 µM (inactive); in the assay on HOP-62 it was > 100 µM (inactive); in the assay on HL-60 it was > 100 µM (inactive); with NCI-H226 it was > 100 µM (inactive). For the same compound, the GI50 with SF-268 is 74.6 µM (inactive); in the assay with SW-620 it was > 100 µM (inactive); with CAKI-1, > 100 µM (inactive); in the assay on SK-MEL-2, > 100 µM (inactive); in the assay with IGROV-1, 69.5 µM (inactive); in the assay on SN12C it was > 100 µM (inactive). In addition, the GI50 with OVCAR-4 is > 100 µM (inactive).

As to `CC(NC(=O)OC(C)(C)C)C(=O)NC(Cc1ccccc1)C(=O)NCC(=O)ON=C1CCCC1` (stereo not given), the GI50 in the assay on T47D was > 100 µM (inactive); with HCC 2998, 89.7 µM (inactive); in the assay with HOP-92, > 100 µM (inactive); in the assay on M14, 53.3 µM (inactive); in the assay with NCI-H460 it was > 100 µM (inactive); with SK-OV-3, > 100 µM (inactive). In addition, the GI50 in the assay with RXF 393, in the assay on UACC-62, in the assay on EKVX, in the assay with HOP-62, in the assay on HL-60 and in the assay on NCI-H226 was > 100 µM (inactive) in each case. Moreover, the GI50 with SF-268, in the assay on SW-620, in the assay on CAKI-1, with SK-MEL-2, with IGROV-1 and in the assay with SN12C was > 100 µM (inactive) throughout. The GI50 with OVCAR-4 was > 100 µM (inactive).

With `CC(C)NC(=O)OCc1c(COC(=O)NC(C)C)c(-c2ccc[n+](COC(=O)C3CC3)c2)n2c1CCC2`, the GI50 is 86.7 µM (inactive) with T47D; > 100 µM (inactive) in the assay with HCC 2998; 40.8 µM (inactive) in the assay on HOP-92; 85.9 µM (inactive) in the assay on M14; 24.2 µM (inactive) with NCI-H460; 49.5 µM (inactive) in the assay on SK-OV-3. The GI50 with RXF 393 is 34.2 µM (inactive); in the assay with UACC-62, 27.6 µM (inactive); in the assay with EKVX, > 100 µM (inactive); in the assay on HOP-62 it was 49.1 µM (inactive); in the assay with HL-60 it was 29.6 µM (inactive); with NCI-H226, > 100 µM (inactive). For the same compound, the GI50 with SF-268 was 28.4 µM (inactive); in the assay on SW-620, > 100 µM (inactive); in the assay with CAKI-1 it was 20.1 µM (inactive); in the assay with SK-MEL-2, 57.1 µM (inactive); with IGROV-1 it was > 100 µM (inactive); in the assay with SN12C, 48.1 µM (inactive). The GI50 with OVCAR-4 is 45.8 µM (inactive).

Turning to `O=C(N(O)c1ccccc1Cl)C(O)(c1ccccc1)c1ccccc1`, the GI50 with T47D was 47 µM (inactive); in the assay with HCC 2998, 35.4 µM (inactive); in the assay on HOP-92 it was 26.1 µM (inactive); in the assay with M14, 54.1 µM (inactive); with NCI-H460, > 100 µM (inactive); in the assay with SK-OV-3 it was > 100 µM (inactive). For the same compound, the GI50 with RXF 393 was 51.2 µM (inactive); with UACC-62, 45.8 µM (inactive); in the assay with EKVX, > 100 µM (inactive); in the assay with HOP-62 it was > 100 µM (inactive); in the assay on HL-60, 22.6 µM (inactive); in the assay on NCI-H226, > 100 µM (inactive). For the same compound, the GI50 was > 100 µM (inactive) with SF-268; 42.7 µM (inactive) in the assay on SW-620; 30.2 µM (inactive) in the assay on CAKI-1; > 100 µM (inactive) with SK-MEL-2; 78.9 µM (inactive) in the assay with IGROV-1; > 100 µM (inactive) in the assay on SN12C. Also, in the assay on OVCAR-4, the GI50 is > 100 µM (inactive).

On to `OC(C/C(=N\N1CCCCC1)c1cccs1)(C(F)(F)F)C(F)(F)F`, for which the GI50 with T47D, with HCC 2998, in the assay with HOP-92, in the assay with M14, in the assay with NCI-H460 and in the assay with SK-OV-3 was > 10 µM (inactive) throughout. Further, the GI50 in the assay on RXF 393, in the assay with UACC-62, with EKVX, in the assay with HOP-62, in the assay on HL-60 and with NCI-H226 was > 10 µM (inactive) in each case. For the same compound, the GI50 in the assay with SF-268, with SW-620, in the assay on CAKI-1, in the assay with SK-MEL-2, in the assay with IGROV-1 and in the assay on SN12C was > 10 µM (inactive) throughout. In addition, the GI50 with OVCAR-4 was > 10 µM (inactive).

Regarding `CC1=NN2C(=N)/C(=C/c3ccccc3)C(=O)N=C2S1`, the GI50 in the assay on T47D, with HCC 2998, in the assay on HOP-92, in the assay with M14, in the assay with NCI-H460 and in the assay with SK-OV-3 was > 100 µM (inactive) throughout. The GI50 in the assay on RXF 393, with UACC-62, with EKVX, with HOP-62, with HL-60 and in the assay with NCI-H226 was > 100 µM (inactive) each time. In addition, the GI50 in the assay with SF-268, with SW-620, in the assay with CAKI-1, in the assay with SK-MEL-2, with IGROV-1 and in the assay with SN12C was > 100 µM (inactive) throughout. In the assay on OVCAR-4, the GI50 was > 100 µM (inactive).

Consider `[N-]=[N+]=NC1C(O)C(CO)OC1n1cnc2c(N)ncnc21` (stereo not given), for which the GI50 was 8.83 µM (inactive) in the assay on T47D; 29.7 µM (inactive) in the assay with HCC 2998; 45.7 µM (inactive) in the assay on HOP-92; 36.6 µM (inactive) with M14; 6.34 µM (inactive) with NCI-H460; 87.5 µM (inactive) in the assay on SK-OV-3. Besides, the GI50 in the assay with RXF 393 was 66.2 µM (inactive); in the assay on UACC-62, 99.5 µM (inactive); in the assay on EKVX it was > 100 µM (inactive); in the assay with HOP-62 it was 84.9 µM (inactive); in the assay with HL-60 it was 0.522 µM (active); with NCI-H226, 51.6 µM (inactive). Also, the GI50 with SF-268 was 51.1 µM (inactive); in the assay with SW-620, 60.5 µM (inactive); in the assay with CAKI-1, 40.9 µM (inactive); with SK-MEL-2, > 100 µM (inactive); in the assay on IGROV-1, 92.7 µM (inactive); with SN12C, 25.9 µM (inactive). The GI50 with OVCAR-4 was > 100 µM (inactive).

In the case of `OC1CC2CCC(C1)N2CCCN1c2ccccc2Sc2ccc(Cl)cc21` (stereo not given), the GI50 is 2.23 µM (inactive) with T47D; 0.338 µM (active) in the assay on HCC 2998; 2.5 µM (inactive) in the assay with HOP-92; 1.81 µM (inactive) in the assay with M14; 1.75 µM (inactive) in the assay with NCI-H460; 3.37 µM (inactive) with SK-OV-3. For the same compound, the GI50 was 1.74 µM (inactive) with RXF 393; 1.64 µM (inactive) in the assay on UACC-62; 3.72 µM (inactive) with EKVX; 4.73 µM (inactive) in the assay with HOP-62; 2.26 µM (inactive) in the assay with HL-60; 5.94 µM (inactive) with NCI-H226. For the same compound, the GI50 in the assay on SF-268 is 2.37 µM (inactive); in the assay with SW-620, 2.43 µM (inactive); in the assay with CAKI-1, 3.01 µM (inactive); in the assay on SK-MEL-2 it was 1.69 µM (inactive); in the assay with IGROV-1 it was 1.98 µM (inactive); with SN12C it was 3.73 µM (inactive). Also, in the assay with OVCAR-4, the GI50 is 3.69 µM (inactive).
